Measured values reported in patent US20090082451A1, “USE OF THYROID HORMONE CONVERSION INHIBITORS” (Trustees of Boston University, priority 2004, published 2009).
“Also recorded” adds a separate entry of the source.

Key:
[1] = Serum total thyroxine (T4) by radioimmunoassay in topically treated mice; format: in vivo, CD-1 mice; conditions: mice treated with IOP cream, relative to control mice; listed as IOP
Description: Serum total thyroxine levels were measured with a standard radioimmunoassay kit (ICN, Orangeburg, N.Y.). Unlike other thyroid hormone kits which use anti-mouse antibodies, the ICN kit uses anti-rabbit antibodies and avoids spuriously elevated readings in mice. Thyroid hormone levels for mice fall at the low end of the human range so the human standards included in the kit were used.

[2] = tested on: human epidermal keratinocytes; assay: Human epidermal keratinocyte proliferation, 3H-thymidine incorporation; format: cell-based; conditions: overnight incubation; 10 μl of 1.5 mM stock per 500 μl medium; ±SEM
Description: (§1) Human keratinocytes were grown in primary culture on a support matrix derived from irradiated fibroblasts. When the cultures reached 40% confluence, the cells were fed basal medium alone for 24 hours and then incubated overnight in medium containing a test substance or sham. The cells were then treated with saturating quantities of ^3H-thymidine (New England Nuclear, Boston, Mass.); DNA was precipitated with 5% perchlorate and relative incorporated thymidine was assessed with a beta counter. Experiments were performed in quadruplicate and averaged. Results reported represent a minimum of three separate quadruplicate experiments.
(§2) The reagents used for tissue culture were iopanoic acid (Sigma, St. Louis, Mo.), sodium ipodate (Fitzgerald Industries International, Flanders, N.J.), and propranolol (Sigma, St. Louis, Mo.). Reagents were dissolved into modestly basic stock solutions to the following final concentrations: 0.025 mM NaOH, 0.2 M NaCl, 1.5 mM reagent. Each experiment used 10 μl of stock reagent (or sham) per 500 μl of medium. For FIGS. 13-18, the “low” concentration is 3 μM for each reagent, and the “high” concentration was 30 μM for each reagent.

[3] = tested on: Human prostate (HPV) cells; format: cell-based; conditions: overnight incubation; 10 μl of 1.5 mM stock per 500 μl medium; ±SEM
Description: as §1, with “prostate (HPV) cells” for “keratinocytes”, “under standard conditions.” for “in primary culture on a support matrix derived from irradiated fibroblasts.”
as §2

[4] = tested on: epidermal proliferation; assay: Topical iopanoic acid cream in mice: epidermal thickness and BrdU incorporation; format: in vivo, CD-1 mice
Description: A topical iopanoic acid (IOP) cream was prepared by mixing IOP (Sigma, St. Louis, Mo.) into a liposome vehicle (Novasome A, IGI inc., New Jersey) previously described (Safer 2001, Safer 2003, Safer 2005). Each mouse received 30 μl of the liposome vehicle applied directly to a 3×3 cm area of shaved skin on the animal's backs. The preparation was applied daily and not removed.
The treatment groups received cream containing 6 mg IOP daily. The control groups were treated with daily application of vehicle alone.
Five week old CD-1 mice were randomized into 2 groups (FIG. 1). The groups had 6 mice each and were evaluated in a crossover study. Each mouse in the crossover study was evaluated twice: once after a 6 mg daily IOP treatment and once after treatment with vehicle alone. Six mice received IOP first followed by a 3 month wash-out/healing completion period. The animals were then evaluated after treatment with topical vehicle alone. Six mice started with vehicle alone and received the IOP treatment after the 3 month wash-out/healing completion period.
All topically treated mice were caged separately to avoid animals receiving doses from their neighbors during grooming. The cream was applied to a midline cephalad region on the animals' backs to minimize the impact of personal grooming on dosing.
Epidermal proliferation was assessed by measuring both epidermal thickness and 5-bromo-2′-deoxyuridine (BrdU, Boehringer Mannheim, Mannheim, Germany) incorporation into DNA. At the completion of the protocols noted, animals were biopsied with full thickness dorsal skin samples were taken. Three hours prior to biopsy, each mouse had received intraperitoneal BrdU as previously described (Safer 2001). Skin samples were fixed in formalin and embedded in paraffin. From each paraffin block, […] sections were made and stained with hematoxylin and eosin (H&E). Epidermal thickness was measured in 10 random locations for each mouse. Additional 5 μm skin histology sections from the above paraffin blocks were stained for BrdU as previously described (Safer 2001). BrdU data are reported as the number of cell nuclei stained/[…] epidermis.

[5] = tested on: Monkey kidney (CV-1) cells; assay: Monkey kidney cell proliferation, 3H-thymidine incorporation; format: cell-based; conditions: overnight incubation; 10 μl of 1.5 mM stock per 500 μl medium; ±SEM
Description: as §1, with “Monkey kidney (CV-1) cells” for “Human keratinocytes”, “under standard conditions.” for “in primary culture on a support matrix derived from irradiated fibroblasts.”
as §2

[6] = tested on: Opossum kidney (OK) cells; assay: Opossum kidney cell proliferation, 3H-thymidine incorporation; format: cell-based; conditions: overnight incubation; 10 μl of 1.5 mM stock per 500 μl medium; ±SEM
Description: as §1, with “Opossum kidney (OK) cells” for “Human keratinocytes”, “under standard conditions.” for “in primary culture on a support matrix derived from irradiated fibroblasts.”
as §2

[7] = topical cream, 6 mg IOP daily, vs vehicle, p<0.05

SMILES | serum T4 levels [1] | inhibition of proliferation of human epidermal keratinocytes relative to control cultures [2] [%] | inhibition of proliferation of human prostate cells relative to control cultures [3] [%] | epidermal proliferation ([4]; Group 1 mice: control vehicle first, then IOP (FIG. 2)) | epidermal proliferation ([4]; Group 2 mice: IOP first, then control vehicle (FIG. 3)) | less epidermal BrdU staining than control mice [4, 7] [%] | thinner epidermis than control mice [4, 7] [%] | inhibition of proliferation of monkey kidney cells relative to control cultures [5] [%] | inhibition of proliferation of opossum kidney cells relative to control cultures [6] [%]
CCC(Cc1c(I)cc(I)c(N)c1I)C(=O)O (centres unmarked) [iopanoic acid] | remained steady; also recorded: not changed | 61±9 | 26±4 | significantly diminished | significantly diminished | 30 | 20 |  | 
O=C(NCC(O)CO)c1c(I)c(C(=O)NCC(O)CO)c(I)c(N(CCO)C(=O)CO)c1I (centres unmarked) [ioversol] |  |  | 22 |  |  |  |  |  | 
CN(C)/C=N/c1c(I)cc(I)c(CCC(=O)[O-])c1I.[Na+] [ipodate sodium] |  | 14±6 | 30±5 |  |  |  |  |  | 
CC(C)NCC(O)COc1cccc2ccccc12 (centres unmarked) [propranolol] |  | 62±3 | 84±8 |  |  |  |  | 82±5 | 88±10
